A short description of data set [1]: in vivo. As to conditions: rat, po.
The species named for a further data set is Rattus norvegicus. To be noted: in vivo, po.
Data set [2] in a line: in vivo. To be noted: rat, po. The source holds these as a separate data set.
Data set [3] is described as follows: in vivo. To be noted: rat, plasma, po.
Data set [4] can be described thus: Plasma concentration in collagen-induced Lewis rat arthritic model at 3 mg/kg, po qd measured at 4 hrs. It is filed as ADME, organism-based. Also noted: dose 3 mg/kg, route oral.
Data set [5] is described as follows: Plasma concentration in collagen-induced Lewis rat arthritic model at 1 mg/kg, po qd measured at 2 hrs. The class given is ADME, organism-based. Set-up: dose 1 mg/kg, route oral.
Data set [6] in a line: physchem. As to conditions: octanol/buffer.
Data set [7] in a line: Plasma concentration in collagen-induced Lewis rat arthritic model at 3 mg/kg, po qd measured at 2 hrs. The class given is ADME, organism-based. Set-up: dose 3 mg/kg, route oral.
A short description of data set [8]: Cmax in collagen-induced Lewis rat arthritic model at 3 mg/kg, po qd. Also noted: dose 3 mg/kg, route oral. As to conditions: in vivo. The class given is ADME, organism-based.
Data set [9] has as its system Plasma. As to the kind of experiment: Plasma concentration in collagen-induced Lewis rat arthritic model at 3 mg/kg, po qd measured immediately post compound dosing. The class given is ADME, organism-based. Also noted: dose 3 mg/kg, route oral. To be noted: in vivo.
Data set [10] has as its system Plasma. As to the kind of experiment: Plasma concentration in collagen-induced Lewis rat arthritic model at 10 mg/kg, po qd measured immediately post compound dosing. It is filed as ADME, organism-based. Set-up: dose 10 mg/kg, route oral. As to conditions: in vivo.
Data set [11] in a line: Plasma concentration in collagen-induced Lewis rat arthritic model at 10 mg/kg, po qd measured at 24 hrs. The class given is ADME, organism-based. Set-up: dose 10 mg/kg, route oral.
A short description of data set [12]: Plasma concentration in collagen-induced Lewis rat arthritic model at 1 mg/kg, po qd measured at 24 hrs. The class given is ADME, organism-based. Set-up: dose 1 mg/kg, route oral.
Data set [13] is described as follows: Plasma concentration in collagen-induced Lewis rat arthritic model at 10 mg/kg, po qd measured at 2 hrs. The class given is ADME, organism-based. Set-up: dose 10 mg/kg, route oral.
Data set [14] can be described thus: Plasma concentration in collagen-induced Lewis rat arthritic model at 1 mg/kg, po qd measured at 4 hrs. It is filed as ADME, organism-based. Also noted: dose 1 mg/kg, route oral.
Data set [15] is described as follows: Plasma concentration in collagen-induced Lewis rat arthritic model at 3 mg/kg, po qd measured at 8 hrs. Also noted: dose 3 mg/kg, route oral. It is filed as ADME, organism-based.
The nature of data set [16]: Plasma concentration in collagen-induced Lewis rat arthritic model at 10 mg/kg, po qd measured at 8 hrs. Also noted: dose 10 mg/kg, route oral. It is filed as ADME, organism-based.
A short description of data set [17]: Plasma concentration in collagen-induced Lewis rat arthritic model at 1 mg/kg, po qd measured at 8 hrs. It is filed as ADME, organism-based. Also noted: dose 1 mg/kg, route oral.
Data set [18] is described as follows: Plasma concentration in collagen-induced Lewis rat arthritic model at 10 mg/kg, po qd measured at 4 hrs. The class given is ADME, organism-based. Set-up: dose 10 mg/kg, route oral.
Data set [19] deals with Plasma. Briefly: Plasma concentration in collagen-induced Lewis rat arthritic model at 1 mg/kg, po qd measured immediately post compound dosing. To be noted: in vivo. It is filed as ADME, organism-based. Set-up: dose 1 mg/kg, route oral.
Data set [20] can be described thus: Plasma concentration in collagen-induced Lewis rat arthritic model at 3 mg/kg, po qd measured at 24 hrs. It is filed as ADME, organism-based. Set-up: dose 3 mg/kg, route oral.
A short description of data set [21]: physchem.

As usually defined, the bioavailability is dose-corrected exposure relative to a reference, in per cent. High values mean much systemic uptake, low ones little systemic uptake. By half-life is commonly meant the time needed for the level to fall by half in the phase considered. High values mean slow decline, low ones rapid decline. As a reminder, the CL/F is clearance divided by bioavailability, as obtained after extravascular dosing. In turn, `COc1cccc2[nH]c(-c3nc(N[C@@H]4CCOC[C@@H]4N)cnc3C(N)=O)cc12` returned a bioavailability in “in vivo [1]” of 29%. In the data set filed under Rattus norvegicus, this compound yielded a CL free of 100 mL/min/kg. For the same compound, the half-life in the data set “in vivo [2]” was 3.5 h. Moreover, the CL/F in “in vivo [3]” worked out at 25 mL/min/kg.

In the data set listed under Rattus norvegicus, `NC(=O)c1ncc(N[C@@H]2CCCC[C@@H]2N)nc1-c1cc2ccccc2[nH]1` showed a CL free of 255 mL/min/kg. The compound further had a half-life in the data set “in vivo [2]” of 2.8 h. The compound further yielded a CL/F in “in vivo [3]” of 44 mL/min/kg.

The logD is the decadic logarithm of the distribution of all forms, ionised or not, between an organic phase and buffer at a given pH. A high value points to a more lipophilic compound. By Cmax is commonly meant the maximum level reached in the sampled fluid or tissue. In general, pKa refers to the pH at which an ionisable group is half protonated. Low readings indicate a stronger acid or weaker base, high ones a weaker acid or stronger base. With `Cc1cc(C)nc(Nc2cc(N[C@@H]3CCCC[C@@H]3N)cnc2C(N)=O)c1`, the concentration at 4 h stood at 200 nM in [4], 100 nM in data set [14] and 500 nM in data set [18]. In addition, the concentration at 2 h was 40 nM in [5], 60 nM in [7] and 200 nM in data set [13]. In the data set “physchem [6]”, the logD at 500 µM worked out at 2.1. The same compound had a Cmax in data set [8] of 200 nM. For the same compound, the concentration with Plasma [9] was 7 nM; in the data set on Plasma [10] it was 10 nM; in the data set with Plasma [19], 5 nM. Moreover, the concentration at 24 h in [11] turned out to be 10 nM; in [12], 5 nM; in data set [20], 7 nM. Also, the values for the concentration at 8 h in data set [15], in [16] and in [17] were 100 nM, 500 nM and 90 nM, respectively. Further, the bioavailability in “in vivo [1]” was 19%. Besides, the CL free in the data set filed under Rattus norvegicus was 710 mL/min/kg. The compound further showed a half-life in “in vivo [2]” of 2.7 h. The CL/F in “in vivo [3]” amounted to 33 mL/min/kg. Moreover, the pKa at 100 µM in “physchem [21]” stood at 9.

Source of the values: ChEMBL document CHEMBL3414497, “Overcoming mutagenicity and ion channel activity: optimization of selective spleen tyrosine kinase inhibitors” (J Med Chem, 2015).
